Results: patent US10174002B2, “Pyridine derivatives as CFTR modulators” (NuBridge BioSciences, priority 2015, dated 2019)
Counter-ions that a name gives are not always drawn.

Biological target: T1, ΔF508 mutant CFTR (Homo sapiens, UniProt P13569, DEL508-508)
T1 construct: expressed in transfected cells; host or cells: Fischer rat thyroid (FRT) cells, co-expressing the halide-sensitive YFP-H148Q/I152L
Assay: Fluorescence Assay of ΔF508 mutant CFTR activity (halide-sensitive YFP quenching by iodide influx in FRT cells)
Type: cell-based
Set-up: key: fold of mean activity with forskolin alone (I− quenching rate)
Conditions: test compounds 20 μM with forskolin 20 μM, 20 min; FRT cells expressing ΔF508-CFTR and YFP-H148Q/I152L, incubated at 27° C. 20-24 h; rate of fluorescence quenching by I−, normalized to mean activity with forskolin alone
Description: The ΔF508 mutant CFTR activities of the CFTR modulators are detected using the Fluorescence Assay developed by Pedemonte (Pedemonte N., et al., Antihypertensive 1,4-dihydropyridines as correctors of the cystic fibrosis transmembrane conductance regulator channel gating defect caused by cystic fibrosis mutations, Mol. Pharmacol., 2005, 68, 1736-1746).
Fischer rat thyroid (FRT) cells, stably transfected with ΔF508 were retransfected with the YFP-H148Q/I152L fluorescent protein. The cells were plated (100,000 cells/well) on black 96-well microplates with clear plastic bottom (Corning Life Sciences, Acton, Mass.).
The 96-well microplates containing FRT cells expressing F508-CFTR and the halide-sensitive YFP were incubated at 27° C. for 20 to 24 h to allow rescue of the mutant protein to the plasma membrane. After incubation, cells were washed with PBS (containing 137 mM NaCl, 2.7 mM KCl, 8.1 mM Na2HPO4, 1.5 mM KH2PO4, 1 mM CaCl2, and 0.5 mM MgCl2) and stimulated for 20 min with forskolin (20 μM) and test compounds (20 μM) in a final volume of 60 μl. Microplates were then transferred to a microplate reader for CFTR activity determination. Each assay consisted of a continuous 14-s fluorescence reading (5 points per second) with 2 s before and 12 s after injection of 165 μl of an iodide-containing solution (PBS with Cl^− replaced by I^−). Final iodide concentration in the wells was 100 mM. […] To determine I^− influx rate, the final 11 s of the data for each well were fitted with an exponential function to extrapolate initial slope. CFTR activity was determined by measuring the rate of fluorescence quenching induced by extracellular addition of I^−. Data are normalized to the mean activity measured in the presence of forskolin alone.

T1 sequence (P13569 with tags, fused parts or gaps DEL508-508): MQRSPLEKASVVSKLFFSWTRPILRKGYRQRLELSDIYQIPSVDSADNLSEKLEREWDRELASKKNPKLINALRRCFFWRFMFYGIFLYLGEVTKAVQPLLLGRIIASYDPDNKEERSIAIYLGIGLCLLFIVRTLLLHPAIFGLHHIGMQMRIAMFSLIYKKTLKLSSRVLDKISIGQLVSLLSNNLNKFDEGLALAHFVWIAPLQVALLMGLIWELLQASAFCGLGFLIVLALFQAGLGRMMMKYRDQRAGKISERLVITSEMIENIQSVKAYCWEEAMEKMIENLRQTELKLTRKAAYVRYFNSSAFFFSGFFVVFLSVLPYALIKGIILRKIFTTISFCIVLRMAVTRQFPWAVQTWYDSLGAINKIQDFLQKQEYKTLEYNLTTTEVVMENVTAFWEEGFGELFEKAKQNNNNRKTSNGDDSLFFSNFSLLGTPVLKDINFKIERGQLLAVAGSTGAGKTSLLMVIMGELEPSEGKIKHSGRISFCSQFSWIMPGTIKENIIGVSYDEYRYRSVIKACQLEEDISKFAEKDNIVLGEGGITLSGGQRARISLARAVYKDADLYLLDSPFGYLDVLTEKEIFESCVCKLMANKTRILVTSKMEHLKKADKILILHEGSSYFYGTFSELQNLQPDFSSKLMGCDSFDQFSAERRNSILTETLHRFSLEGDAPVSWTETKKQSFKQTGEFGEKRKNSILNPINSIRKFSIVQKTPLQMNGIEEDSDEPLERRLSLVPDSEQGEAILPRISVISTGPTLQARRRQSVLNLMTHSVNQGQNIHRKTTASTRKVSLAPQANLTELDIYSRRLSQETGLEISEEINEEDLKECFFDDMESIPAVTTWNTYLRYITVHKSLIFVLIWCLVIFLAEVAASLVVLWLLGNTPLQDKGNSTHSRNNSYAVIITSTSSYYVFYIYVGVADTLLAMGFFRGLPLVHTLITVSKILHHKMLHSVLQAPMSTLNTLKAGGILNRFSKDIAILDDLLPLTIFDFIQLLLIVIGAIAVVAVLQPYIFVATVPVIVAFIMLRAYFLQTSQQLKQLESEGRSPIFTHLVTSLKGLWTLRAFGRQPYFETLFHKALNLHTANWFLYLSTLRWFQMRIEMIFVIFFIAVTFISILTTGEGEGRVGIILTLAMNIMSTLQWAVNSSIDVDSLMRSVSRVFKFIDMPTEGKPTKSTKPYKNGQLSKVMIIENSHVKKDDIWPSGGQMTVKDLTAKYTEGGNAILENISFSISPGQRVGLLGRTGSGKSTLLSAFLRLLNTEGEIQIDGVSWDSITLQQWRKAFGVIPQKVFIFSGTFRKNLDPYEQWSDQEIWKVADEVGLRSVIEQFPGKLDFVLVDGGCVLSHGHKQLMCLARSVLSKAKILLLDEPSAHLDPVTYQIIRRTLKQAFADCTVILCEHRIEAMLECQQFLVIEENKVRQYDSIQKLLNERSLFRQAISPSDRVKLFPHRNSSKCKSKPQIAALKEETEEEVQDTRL

| CFTR Activity | SMILES |
| --- | --- |
| 1.4 | Cl.O=C(Nc1cnccc1OCC1CCNCC1)c1ccc(F)c(-c2c(F)cccc2F)n1 [Example 1, 6-(2,6-difluorophenyl)-5-fluoro-N-(4-(piperidin-4-ylmethoxy)pyridin-3-yl)picolinamide hydrochloride] |
| 1.6 | Cl.O=C(Nc1cnccc1OC1CCNCC1)c1ccc(F)c(-c2c(F)cccc2F)n1 [Example 3, 6-(2,6-difluorophenyl)-5-fluoro-N-(4-(piperidin-4-yloxy)pyridin-3-yl)picolinamide hydrochloride] |
| 0.9 | Cl.O=C(Nc1cnccc1OC1CCNC1)c1ccc(F)c(-c2c(F)cccc2F)n1 (stereo not shown) [Example 4, 6-(2,6-difluorophenyl)-5-fluoro-N-(4-(pyrrolidin-3-yloxy)pyridin-3-yl)picolinamide hydrochloride] |
| 0.5 | Cl.O=C(Nc1cnccc1OC1CCCNC1)c1ccc(F)c(-c2c(F)cccc2F)n1 (stereo not shown) [Example 5, 6-(2,6-difluorophenyl)-5-fluoro-N-(4-(piperidin-3-yloxy)pyridin-3-yl)picolinamide hydrochloride] |
| 1.9 | Cl.O=C(Nc1cnccc1OC1CCCNCC1)c1ccc(F)c(-c2c(F)cccc2F)n1 (stereo not shown) [Example 6, N-(4-(azepan-4-yloxy)pyridin-3-yl)-6-(2,6-difluorophenyl)-5-fluoropicolinamide hydrochloride] |
| 0.8 | Cl.O=C(Nc1cnccc1OCC1CCCNC1)c1ccc(F)c(-c2c(F)cccc2F)n1 (stereo not shown) [Example 7, 6-(2,6-difluorophenyl)-5-fluoro-N-(4-(piperidin-3-ylmethoxy)pyridin-3-yl)picolinamide hydrochloride] |
| 0.5 | Cl.O=C(Nc1cnccc1OCC1CCNC1)c1ccc(F)c(-c2c(F)cccc2F)n1 (stereo not shown) [Example 8, 6-(2,6-difluorophenyl)-5-fluoro-N-(4-(pyrrolidin-3-ylmethoxy)pyridin-3-yl)picolinamide hydrochloride] |
| 2.2 | Cl.NC1CCC(Oc2ccncc2NC(=O)c2ccc(F)c(-c3c(F)cccc3F)n2)CC1 (stereo not shown) [Example 10, N-(4-(((1r,4r)-4-aminocyclohexyl)oxy)pyridin-3-yl)-6-(2,6-difluorophenyl)-5-fluoropicolinamide hydrochloride] |
| 3.1 | Cl.NC1CCCC(Oc2ccncc2NC(=O)c2ccc(F)c(-c3c(F)cccc3F)n2)C1 (stereo not shown) [Example 11, N-(4-((3-aminocyclohexyl)oxy)pyridin-3-yl)-6-(2,6-difluorophenyl)-5-fluoropicolinamide hydrochloride] |
| 0.7 | Cl.NCCCOc1ccncc1NC(=O)c1ccc(F)c(-c2c(F)cccc2F)n1 [Example 12, N-(4-(3-aminopropoxy)pyridin-3-yl)-6-(2,6-difluorophenyl)-5-fluoropicolinamide hydrochloride] |
| 0.6 | CNCCCOc1ccncc1NC(=O)c1ccc(F)c(-c2c(F)cccc2F)n1.Cl [Example 13, 6-(2,6-difluorophenyl)-5-fluoro-N-(4-(3-(methylamino)propoxy)pyridin-3-yl)picolinamide hydrochloride] |
| 0.2 | CN(C)CCCOc1ccncc1NC(=O)c1ccc(F)c(-c2c(F)cccc2F)n1.Cl [Example 14, 6-(2,6-difluorophenyl)-N-(4-(3-(dimethylamino)propoxy)pyridin-3-yl)-5-fluoropicolinamide hydrochloride] |
| 0.2 | O=C(Nc1cnccc1OCCCO)c1ccc(F)c(-c2c(F)cccc2F)n1 [Example 17, 6-(2,6-difluorophenyl)-5-fluoro-N-(4-(3-hydroxypropoxy)pyridin-3-yl)picolinamide] |
| 0.1 | CC(C)(O)CCCOc1ccncc1NC(=O)c1ccc(F)c(-c2c(F)cccc2F)n1 [Example 20, 6-(2,6-difluorophenyl)-5-fluoro-N-(4-((4-hydroxy-4-methylpentyl)oxy)pyridin-3-yl)picolinamide] |
| 0.05 | O=C(Nc1cnccc1OCC1CCOCC1)c1ccc(F)c(-c2c(F)cccc2F)n1 [Example 22, 6-(2,6-difluorophenyl)-5-fluoro-N-(4-((tetrahydro-2H-pyran-4-yl)methoxy)pyridin-3-yl)picolinamide] |
| 2.5 | Cl.Nc1cc(F)c(-c2c(F)cccc2F)nc1C(=O)Nc1cnccc1OCC1CCNCC1 [Example 23, 3-amino-6-(2,6-difluorophenyl)-5-fluoro-N-(4-(piperidin-4-ylmethoxy)pyridin-3-yl)picolinamide hydrochloride] |
| 2.1 | Cl.Nc1cc(F)c(-c2c(F)cccc2F)nc1C(=O)Nc1cnccc1OC1CCNC1 (stereo not shown) [Example 24, 3-amino-6-(2,6-difluorophenyl)-5-fluoro-N-(4-(pyrrolidin-3-yloxy)pyridin-3-yl)picolinamide hydrochloride] |
| 3.2 | Cl.Nc1cc(F)c(-c2c(F)cccc2F)nc1C(=O)Nc1cnccc1OC1CCNCC1 [Example 25, 3-amino-6-(2,6-difluorophenyl)-5-fluoro-N-(4-(piperidin-4-yloxy)pyridin-3-yl)picolinamide hydrochloride] |
| 4.3 | Cl.Nc1cc(F)c(-c2c(F)cccc2F)nc1C(=O)Nc1cnccc1OC1CCCNCC1 (stereo not shown) [Example 26, 3-amino-N-(4-(azepan-4-yloxy)pyridin-3-yl)-6-(2,6-difluorophenyl)-5-fluoropicolinamide hydrochloride] |
| 4.5 | Cl.Nc1cc(F)c(-c2c(F)cccc2F)nc1C(=O)Nc1cnccc1O[C@H]1CC[C@H](N)CC1 [Example 27, 3-amino-N-(4-(((1r,4r)-4-aminocyclohexyl)oxy)pyridin-3-yl)-6-(2,6-difluorophenyl)-5-fluoropicolinamide hydrochloride] |
| 2.2 | Cl.Nc1cc(F)c(-c2c(F)cccc2F)nc1C(=O)Nc1cnccc1OCC1CCNC1 (stereo not shown) [Example 28, 3-amino-6-(2,6-difluorophenyl)-5-fluoro-N-(4-(pyrrolidin-3-ylmethoxy)pyridin-3-yl)picolinamide hydrochloride] |
| 1.8 | NCC(CCl)Oc1ccncc1NC(=O)c1ccc(F)c(-c2c(F)cccc2F)n1 (stereo not shown) [Example 29, N-(4-((1-amino-3-chloropropan-2-yl)oxy)pyridin-5-yl)-6-(2,6-difluorophenyl)-5-fluoropicolinamide hydrochloride] |
| 1.6 | Cl.NCC(CCl)COc1ccncc1NC(=O)c1ccc(F)c(-c2c(F)cccc2F)n1 (stereo not shown) [Example 30, N-(4-(3-amino-2-(chloromethyl)propoxy)pyridin-5-yl)-6-(2,6-difluorophenyl)-5-fluoropicolinamide hydrochloride] |
| 1.1 | Cl.Nc1cc(F)c(-c2c(F)cccc2F)nc1C(=O)Nc1cnccc1OC1CNC1 [Example 31, 3-amino-N-(4-(azetidin-3-yloxy)pyridin-3-yl)-6-(2,6-difluorophenyl)-5-fluoropicolinamide hydrochloride] |
| 1.2 | Cl.Nc1cc(F)c(-c2c(F)cccc2F)nc1C(=O)Nc1cnccc1OCC1CNC1 [Example 32, 3-amino-N-(4-(azetidin-3-ylmethoxy)pyridin-3-yl)-6-(2,6-difluorophenyl)-5-fluoropicolinamide hydrochloride] |
| 2.1 | Cl.NCC(CCl)Oc1ccncc1NC(=O)c1nc(-c2c(F)cccc2F)c(F)cc1N (stereo not shown) [Example 33, 3-amino-N-(4-((1-amino-3-chloropropan-2-yl)oxy)pyridin-3-yl)-6-(2,6-difluorophenyl)-5-fluoropicolinamide hydrochloride] |

| SMILES | CFTR Activity |
| --- | --- |
| Cl.NCCCCOc1ccncc1NC(=O)c1ccc(F)c(-c2c(F)cccc2F)n1 [Example 15, N-(4-(4-aminobutoxy)pyridin-3-yl)-6-(2,6-difluorophenyl)-5-fluoropicolinamide hydrochloride] | 0.7 |
| CNCCCCOc1ccncc1NC(=O)c1ccc(F)c(-c2c(F)cccc2F)n1.Cl [Example 16, 6-(2,6-difluorophenyl)-5-fluoro-N-(4-(4-(methylamino)butoxy)pyridin-3-yl)picolinamide hydrochloride] | 0.6 |
| CC(O)CCOc1ccncc1NC(=O)c1ccc(F)c(-c2c(F)cccc2F)n1 (stereo not shown) [Example 18, 6-(2,6-difluorophenyl)-5-fluoro-N-(4-(3-hydroxybutoxy)pyridin-3-yl)picolinamide] | 0.1 |
| O=C(Nc1cnccc1OCCCCO)c1ccc(F)c(-c2c(F)cccc2F)n1 [Example 19, 6-(2,6-difluorophenyl)-5-fluoro-N-(4-(4-hydroxybutoxy)pyridin-3-yl)picolinamide] | 0.3 |
| O=C(Nc1cnccc1OCCC(O)CO)c1ccc(F)c(-c2c(F)cccc2F)n1 (stereo not shown) [Example 21, 6-(2,6-difluorophenyl)-N-(4-(3,4-dihydroxybutoxy)pyridin-3-yl)-5-fluoropicolinamide] | 0.1 |
